Assay results published in patent US20260373248A1, “DEGRADABLE PEPTOIDS” (Medici Therapeutics, Inc., priority 2023, published 2026).
Starred links: 1 amine or outer side, 2 acyl side, 3 side chain; linkers in the order of their positions; H or OH if unused. Non-standard residues stand in square brackets, D forms with d. Residues, ends and D or L forms follow the SMILES beside them. *: point of attachment. Gly(N-(3-decanoyloxypropyl)) = CCCCCCCCCC(=O)OCCCNCC(=O)O; N(2-decanoyloxyethyl)Gly = CCCCCCCCCC(=O)OCCNCC(=O)O; Gly(N-(CH2)3O-octanoyl) = CCCCCCCC(=O)OCCCNCC(=O)O; N(3-imidazol-1-ylpropyl)Gly = O=C(O)CNCCCn1ccnc1; Gly(N-3-morpholinopropyl) = O=C(O)CNCCCN1CCOCC1; N(2-ethylhexyl)Gly = CCCCC(CC)CNCC(=O)O; X1 = CCCCC(CC)CSSCCN(CC(=O)[*:2])[*:1]; X3 = CCCCCCCCSSCCN(CC(=O)[*:2])[*:1]; N(CH(CH2OH)2)Gly = O=C(O)CNC(CO)CO; N(octyl)Gly = CCCCCCCCNCC(=O)O; NDecylGly = CCCCCCCCCCNCC(=O)O; For = O=C*

Key:
[1] = Delivery vehicle size and polydispersity by dynamic light scattering; type: physicochemical
Procedure: Delivery vehicles were formulated by rapid microfluidic mixing using a high throughput microfluidic system. Briefly, ethanol solutions containing peptoid, DSPC, Cholesterol, DMG-PEG2000 at weight ratio of 20:1.79:7.16:1.84, were mixed with 10 mM sodium citrate buffer (pH 5.0) containing synthesized mRNA at a ratio of 1:3 by volume. Peptoid based LNPs were subsequently dialyzed against 1-2 liters of tris-sucrose buffer (TS7, pH 7.4) overnight at 4 °C. Delivery vehicle size and polydispersity (PDI) was measured by dynamic light scattering in PBS.
(§1) Degradable peptoids described herein were formulated as various formulations described in Table 3 according to the procedure described in Example 2. Particle size was characterized as described in Example 2, and […] encapsulation of mRNA was determined as described in Example 3.

mRNA = mRNA encapsulation (modified Quant-iT RiboGreen assay); type: physicochemical; conditions: for mean percent encapsulation of RNA: RiboGreen, without vs with Triton X-100; for % Encapsulation: mRNA
Procedure: The mRNA concentration and the percentage of encapsulated mRNA were determined using fluorescent-based Quant-iT RiboGreen RNA Reagent Kit (Life Technologies, Waltham, MA) as described previously. To determine the mRNA concentration, PNPs was incubated with […] for 10 min to release entrapped mRNA, followed by addition of RiboGreen RNA reagent. The fluorescence intensity of mRNA-RiboGreen reagent complex (excitation at 485 nm and emission at 530 nm) was detected using a microplate reader. The ratio of fluorescence without and with Triton X-100 were used to calculate the percentage of encapsulated mRNA.
as §1

firefly luciferase = test: In vivo firefly luciferase expression after intravenous injection of fLuc mRNA delivery vehicles (IVIS imaging); design: species or system female Balb/c mice; conditions: for Total Flux: mice, 2.5 ug fLuc mRNA intravenously, 6 hours post-injection; for Total Flux (luciferase expression): fLuc mRNA, intravenous, Balb/c mice
Procedure: (§2) All animal studies were conducted under accreditation by the California State Department of Public Health and under supervision of IACUC and Veterinarian Supervision. For imaging studies, female Balb/c mice (6-8 weeks old) were obtained and acclimatized for a minimum of 3 days prior to experiments. The animals were maintained on a 12 hour light cycle in a temperature and humidity controlled room. A daily health check was performed as well as food and water check. For dosing, mice were injected with 2.5 ug fLuc mRNA-containing Nutshells intravenously in 100 μL total injection value. At 6 hours post-injection, mice were anesthetized with isoflurane, injected IP with 30 mg/mL D-luciferin at a dose of 10 μL per gram bodyweight intraperitoneally. Imaging was done 10 minutes post D-luciferin injection using an IVIS Spectrum Imaging System (Caliper Life Sciences). Immediately after in vivo imaging, mice were terminally bled by cardiac puncture and euthanized. The organs of interest were harvested, placed in black 24-well plates, and imaged. Living Image software (Perkin Elmer) was used to quantify the total photon flux in regions of interest.
Luciferase expression in these formulations was also determined as described in Example 4.

luciferase = test: Luciferase expression after local (intramuscular or subcutaneous) administration of mRNA; type: in vivo; conditions: mRNA 0.01 mpk, 6 hours; for IM Flux: intramuscular; for SC Flux: subcutaneous
Procedure: as §2
Aminolipidated peptoids were also effective for local administration of mRNA through subcutaneous (S.C.) or intramuscular (I.M.) routes of administration. For these examples, mRNA was administered at a dose of 0.1 mpk for intratomoral, or 0.01 mpk for subcutaneous and intramuscular administration, and the resulting bioluminescence quantified after 6 hours according to a similar procedure as described in Example 4.

[2] = DLS in PBS, peptoid:DSPC:Cholesterol:DMG-PEG2000 weight ratio 20:1.79:7.16:1.84, mRNA

Row | Compound | PDI [1, 2] | Particle Size [1, 2] [nm] | mean percent encapsulation of RNA (mRNA) [%] | Total Flux (firefly luciferase) [p/s] | IM Flux (luciferase) [p/s] | SC Flux (luciferase) [p/s] | also measured
1 | CCCCCCCC(=O)OCCCN(C=O)CC(=O)N(CCCOC(=O)CCCCCCC)CC(=O)N(CCSSCC(CC)CCCC)CC(=O)N(CCCN1CCOCC1)CC(=O)N(CCSSCC(CC)CCCC)CC(=O)N(CCCOC(=O)CCCCCCC)CC(=O)N(CCCOC(=O)CCCCCCC)CC(N)=O (stereo not drawn) [Compound 133] (For-[Gly(N-(CH2)3O-octanoyl)][Gly(N-(CH2)3O-octanoyl)][X1][Gly(N-3-morpholinopropyl)][X1][Gly(N-(CH2)3O-octanoyl)][Gly(N-(CH2)3O-octanoyl)]-NH2) | 0.083 | 76.9 | 86.7 | 2.80E+08 | 1.08E+07 | 3.73E+07 | –
2 | CCCCCCCCCC(=O)OCCN(CC(=O)N(CCOC(=O)CCCCCCCCC)CC(=O)N(CCSSCC(CC)CCCC)CC(=O)N(CCOC(=O)CCCCCCCCC)CC(=O)N(CCOC(=O)CCCCCCCCC)CC(=O)N(CCSSCC(CC)CCCC)CC(N)=O)C(=O)CNC(CO)CO (stereo not drawn) [Compound 135] (H-[N(CH(CH2OH)2)Gly][N(2-decanoyloxyethyl)Gly][N(2-decanoyloxyethyl)Gly][X1][N(2-decanoyloxyethyl)Gly][N(2-decanoyloxyethyl)Gly][X1]-NH2) | 0.158 | 59.2 | 91.4 | 8.92E+08 | 3.49E+08 | 5.56E+08 | –
3 | CCCCCCCCSSCCN(CC(=O)N(CCCN1CCOCC1)CC(=O)N(CCSSCCCCCCCC)CC(=O)N(CCCOC(=O)CCCCCCC)CC(=O)N(CCCOC(=O)CCCCCCC)CC(N)=O)C(=O)CN(CCCOC(=O)CCCCCCC)C(=O)CN(C=O)CCCOC(=O)CCCCCCC [Compound 134] (For-[Gly(N-(CH2)3O-octanoyl)][Gly(N-(CH2)3O-octanoyl)][X3][Gly(N-3-morpholinopropyl)][X3][Gly(N-(CH2)3O-octanoyl)][Gly(N-(CH2)3O-octanoyl)]-NH2) | 0.062 | 73.8 | 83.7 | 5.63E+08 | 6.40E+07 | 1.60E+08 | –
4 | CCCCCCCCN(CC(=O)N(CCCOC(=O)CCCCCCC)CC(=O)N(CCSSCC(CC)CCCC)CC(=O)N(CCCCCCCC)CC(=O)N(CCCOC(=O)CCCCCCC)CC(=O)N(CCSSCC(CC)CCCC)CC(N)=O)C(=O)CNC(CO)CO (stereo not drawn) [Compound 127] (H-[N(CH(CH2OH)2)Gly][N(octyl)Gly][Gly(N-(CH2)3O-octanoyl)][X1][N(octyl)Gly][Gly(N-(CH2)3O-octanoyl)][X1]-NH2) | 0.093 | 84.1 | 84.2 | 6.54E+09 | 3.36E+08 | 1.92E+08 | –
5 | CCCCCCCCN(C=O)CC(=O)N(CCCOC(=O)CCCCCCC)CC(=O)N(CCSSCC(CC)CCCC)CC(=O)N(CCCN1CCOCC1)CC(=O)N(CCSSCC(CC)CCCC)CC(=O)N(CCCOC(=O)CCCCCCC)CC(=O)N(CCCCCCCC)CC(N)=O (stereo not drawn) [Compound 132] (For-[N(octyl)Gly][Gly(N-(CH2)3O-octanoyl)][X1][Gly(N-3-morpholinopropyl)][X1][Gly(N-(CH2)3O-octanoyl)][N(octyl)Gly]-NH2) | 0.090 | 86.0 | 74.2 | 1.31E+10 | 4.62E+08 | 6.94E+08 | –
6 | CCCCCCCC(=O)OCCCN(CC(=O)N(CCCOC(=O)CCCCCCC)CC(=O)N(CCSSCC(CC)CCCC)CC(=O)N(CCCOC(=O)CCCCCCC)CC(=O)N(CCCOC(=O)CCCCCCC)CC(=O)N(CCSSCC(CC)CCCC)CC(N)=O)C(=O)CNC(CO)CO (stereo not drawn) [Compound 128] (H-[N(CH(CH2OH)2)Gly][Gly(N-(CH2)3O-octanoyl)][Gly(N-(CH2)3O-octanoyl)][X1][Gly(N-(CH2)3O-octanoyl)][Gly(N-(CH2)3O-octanoyl)][X1]-NH2) | 0.098 | 62.1 | 89.5 | 4.01E+09 | 4.20E+08 | 6.68E+08 | Particle Size ([1]; formulation recipe D22): 62.1 nm; Particle Size ([1]; formulation recipe R3): 77.5 nm; Particle Size ([1]; formulation recipe R4): 73.6 nm; Particle Size ([1]; formulation recipe R7): 82.7 nm; Particle Size ([1]; formulation recipe R8): 78.9 nm; % Encapsulation (mRNA; formulation recipe D22): 89.5%; % Encapsulation (mRNA; formulation recipe R3): 89.5%; % Encapsulation (mRNA; formulation recipe R4): 87.7%; % Encapsulation (mRNA; formulation recipe R7): 92.5%; % Encapsulation (mRNA; formulation recipe R8): 94.4%; Total Flux (luciferase expression) (firefly luciferase; formulation recipe D22): 4.01E+09 p/s; Total Flux (luciferase expression) (firefly luciferase; formulation recipe R3): 5.39E+08 p/s; Total Flux (luciferase expression) (firefly luciferase; formulation recipe R4): 5.47E+08 p/s; Total Flux (luciferase expression) (firefly luciferase; formulation recipe R7): 1.09E+09 p/s; Total Flux (luciferase expression) (firefly luciferase; formulation recipe R8): 5.73E+08 p/s
7 | CCCCCCCCCC(=O)OCCCN(CC(=O)N(CCSSCC(CC)CCCC)CC(N)=O)C(=O)CN(CCCCCCCC)C(=O)CN(CCSSCC(CC)CCCC)C(=O)CN(CCCOC(=O)CCCCCCCCC)C(=O)CN(CCCCCCCC)C(=O)CNC(CO)CO (stereo not drawn) [Compound 129] (H-[N(CH(CH2OH)2)Gly][N(octyl)Gly][Gly(N-(3-decanoyloxypropyl))][X1][N(octyl)Gly][Gly(N-(3-decanoyloxypropyl))][X1]-NH2) | 0.101 | 61.2 | 89.2 | 1.06E+09 | 2.00E+08 | 3.41E+08 | –
8 | CCCCCCCCCCN(CC(=O)N(CCSSCC(CC)CCCC)CC(=O)N(CCCOC(=O)CCCCCCC)CC(N)=O)C(=O)CN(CCSSCC(CC)CCCC)C(=O)CN(CCCOC(=O)CCCCCCC)C(=O)CN(CC(CC)CCCC)C(=O)CNC(CO)CO (stereo not drawn) [Compound 130] (H-[N(CH(CH2OH)2)Gly][N(2-ethylhexyl)Gly][Gly(N-(CH2)3O-octanoyl)][X1][NDecylGly][X1][Gly(N-(CH2)3O-octanoyl)]-NH2) | 0.086 | 75.5 | 86.0 | 4.45E+09 | 2.72E+08 | 1.92E+08 | –
9 | CCCCCCCCCC(=O)OCCCN(CC(=O)N(CC(N)=O)CC(CC)CCCC)C(=O)CN(CCCCCCCC)C(=O)CN(CC(CC)CCCC)C(=O)CN(CCCOC(=O)CCCCCCCCC)C(=O)CN(CCCCCCCC)C(=O)CNCCCn1ccnc1 (stereo not drawn) [Compound 111] (H-[N(3-imidazol-1-ylpropyl)Gly][N(octyl)Gly][Gly(N-(3-decanoyloxypropyl))][N(2-ethylhexyl)Gly][N(octyl)Gly][Gly(N-(3-decanoyloxypropyl))][N(2-ethylhexyl)Gly]-NH2) | 0.148 | 105.5 | 72.3 | 3.16E+08 | 4.89E+07 | 6.25E+07 | –
